From patent US10597388B2, “Pyridazinone herbicides” (FMC CORPORATION, priority 2014, dated 2020)
Like-named read-outs stand apart in the source and are kept apart here.

How the values were obtained:
Format in all cases: in vivo
[1] = system: barnyardgrass (Echinochloa crus-galli); experiment: Test A greenhouse herbicide test, pre- and postemergence; conditions: for pest or weed control at 1000 g/ha: Echinochloa crus-galli, 240 h
Summary of the method: (§1)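 Visual injury ratings, 0 (no effect) to 100 (complete control), versus untreated plants after roughly 10 d in a greenhouse. Compounds, formulated in a surfactant-containing non-phytotoxic solvent, were sprayed on loam–sand soil after sowing (pre) or on one- to two-leaf plants 2–10 cm tall (post).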

corn (Zea mays) = experiment: as above
Summary of the method: as §1

[2] = system: crabgrass, large (large crabgrass, Digitaria sanguinalis); experiment: as above; conditions: 1000 g ai/ha, 0 to 100 scale
Summary of the method: as §1

[3] = system: foxtail, giant (giant foxtail, Setaria faberii); experiment: as above; conditions: for pest or weed control at 1000 g/ha: Setaria faberi, 240 h
Summary of the method: as §1

[4] = system: momingglory (Ipomoea spp.); experiment: as above; conditions: 1000 g ai/ha, 0 to 100 scale; for pest or weed control at 1000 g/ha: Ipomoea, 240 h
Summary of the method: as §1

[5] = system: pigweed (Amaranthus retroflexus); experiment: as above
Summary of the method: as §1

[6] = system: velvetleaf (Abutilon theophrasti); experiment: as above; conditions: Preemergence, 1000 g ai/ha, 0 to 100 scale, 0 no effect, 100 complete control
Summary of the method: as §1

[7] = system: wheat (Triticum aestivum); experiment: as above; conditions: for plant injury at 1000 g/ha: Triticum aestivum, 240 h
Summary of the method: as §1

[8] = system: barnyardgrass (Echinochloa crus-galli); experiment: Test B flooded paddy test; conditions: 250 g ai/ha, Flood; visual rating on scale of 0 to 100 where 0 is no effect and 100 is complete control; 13 to 15 d after treatment
Summary of the method: (§2)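 Ratings use a 0-100 visual scale, where 100 is complete control, and compare treated plants with controls after 13 to 15 d of greenhouse growth. Compound went straight into paddy water kept 3 cm over the soil surface, applied to seedlings at the 2-leaf stage.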

[9] = system: ducksalad (Heteranthera limosa); experiment: Test B flooded paddy test; conditions: 250 g ai/ha, Flood; visual rating on scale of 0 to 100 where 0 is no effect and 100 is complete control; 13 to 15 d after treatment
Summary of the method: as §2

rice (Oryza sativa) = experiment: Test B flooded paddy test; conditions: 250 g ai/ha, Flood; visual rating on scale of 0 to 100 where 0 is no effect and 100 is complete control; 13 to 15 d after treatment
Summary of the method: as §2

[10] = system: sedge, umbrella (small-flower umbrella sedge, Cyperus difformis); experiment: Test B flooded paddy test; conditions: 250 g ai/ha, Flood; visual rating on scale of 0 to 100 where 0 is no effect and 100 is complete control; 13 to 15 d after treatment
Summary of the method: as §2

kochia (Kochia scoparia) = experiment: Test A greenhouse herbicide test, pre- and postemergence; conditions: for Kochia plant response rating: 0 is no effect, 100 is complete control
Summary of the method: as §1

[11] = system: ragweed (common ragweed, Ambrosia elatior); experiment: as above; conditions: for Ragweed plant response rating: 0 is no effect, 100 is complete control
Summary of the method: as §1

[12] = system: ryegrass, Italian (Italian ryegrass, Lolium multiflorum); experiment: as above; conditions: for Ryegrass, Italian plant response rating: 0 is no effect, 100 is complete control
Summary of the method: as §1

[13] = system: blackgrass (Alopecurus myosuroides); experiment: Test A greenhouse herbicide test, postemergence; conditions: for Blackgrass plant response rating: 1000 g ai/ha, 0 is no effect, 100 is complete control
Summary of the method: (§3)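 Seedlings in a loam soil and sand mix received formulated compound postemergence at the one- to two-leaf stage. Greenhouse holding lasts approximately 10 d, then injury is scored visually relative to untreated plants, 0 meaning no effect and 100 complete control.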

[14] = system: galium (catchweed bedstraw, Galium aparine); experiment: Test A greenhouse herbicide test, postemergence; conditions: for Galium plant response rating: 1000 g ai/ha, 0 is no effect, 100 is complete control
Summary of the method: as §3

[15] = Postemergence, 1000 g ai/ha, 0 to 100 scale, 0 is no effect, 100 is complete control
[16] = Preemergence, 1000 g ai/ha, 0 to 100 scale, 0 no effect, 100 complete control
[17] = Postemergence, 0 is no effect, 100 is complete control
[18] = Preemergence, 0 no effect, 100 complete control
[19] = Postemergence, 125 g ai/ha, 0 to 100 scale, 0 no effect, 100 complete control
[20] = Postemergence, 500 g ai/ha, visual rating after approx. 10 d, 0 to 100 scale (0 no effect, 100 complete control)
[21] = Preemergence, 125 g ai/ha, visual injury rating, 0 to 100 scale (0 no effect, 100 complete control), approx. 10 d
[22] = Preemergence, 500 g ai/ha, 0 to 100 scale where 0 is no effect and 100 is complete control
[23] = 125 g ai/ha, 0 to 100 scale, 0 no effect, 100 complete control
[24] = 500 g ai/ha, visual rating after approx. 10 d, 0 to 100 scale (0 no effect, 100 complete control)
[25] = Postemergence, 1000 g ai/ha, 0 to 100 scale

5-hydroxy-4-(5-methoxy-3-benzofuranyl)-2,6-dimethyl-3(2H)-pyridazinone [Compound 5]
Barnyardgrass plant response rating [1, 15]: 40 | Plant response rating, Barnyardgrass [1, 16]: 90 | Corn plant response rating (corn (Zea mays); [15]): 0 | Plant response rating, Corn (corn (Zea mays); [16]): 0 | Crabgrass, Large plant response rating [2, 17]: 80 | Plant response rating, Crabgrass, Large [2, 18]: 90 | Foxtail, Giant plant response rating [3, 15]: 80 | Plant response rating, Foxtail, Giant [3, 16]: 80 | Morningglory plant response rating [4, 17]: 70 | Plant response rating, Morningglory [4, 18]: 0 | Pigweed plant response rating [5, 15]: 10 | Plant response rating, Pigweed [5, 16]: 0 | Plant response rating, Velvetleaf [6]: 0 | Wheat plant response rating [7, 15]: 0 | Plant response rating, Wheat [7, 16]: 0 | Plant response rating, Barnyardgrass [8]: 0 | Plant response rating, Ducksalad [9]: 45 | Plant response rating, Rice (rice (Oryza sativa)): 0 | Plant response rating, Sedge, Umbrella [10]: 75

Cc1nn(C)c(=O)c(-c2c(C)oc3ccc(Cl)cc23)c1O [Compound 6, 4-(5-chloro-2-methyl-3-benzofuranyl)-5-hydroxy-2,6-dimethyl-3 (2H)-pyridazinone]
pest or weed control at 1000 g/ha ([1]; post-emergence, Postemergence, 1000 g ai/ha, 0 to 100 scale, 0 is no effect, 100 is complete control, read-out: Barnyardgrass plant response rating): 70% | pest or weed control at 1000 g/ha ([1]; pre-emergence, Preemergence, 1000 g ai/ha, 0 to 100 scale, 0 no effect, 100 complete control, read-out: Plant response rating, Barnyardgrass): 100% | plant injury at 1000 g/ha (corn (Zea mays); Zea mays, post-emergence, 240 h, Postemergence, 1000 g ai/ha, 0 to 100 scale, 0 is no effect, 100 is complete control, read-out: Corn plant response rating): 0% | Corn plant response rating (crop injury, 0 = no effect, 100 = complete kill) at 1000 g/ha (corn (Zea mays); Zea mays, pre-emergence, 240 h, Preemergence, 1000 g ai/ha, 0 to 100 scale, 0 no effect, 100 complete control): 30% | pest or weed control at 1000 g/ha ([2]; Digitaria sanguinalis, post-emergence, 240 h, Postemergence, 0 is no effect, 100 is complete control, read-out: Crabgrass, Large plant response rating): 50% | pest or weed control at 1000 g/ha ([3]; post-emergence, Postemergence, 1000 g ai/ha, 0 to 100 scale, 0 is no effect, 100 is complete control, read-out: Foxtail, Giant plant response rating): 70% | pest or weed control at 1000 g/ha ([3]; pre-emergence, Preemergence, 1000 g ai/ha, 0 to 100 scale, 0 no effect, 100 complete control, read-out: Plant response rating, Foxtail, Giant): 50% | pest or weed control at 1000 g/ha ([4]; post-emergence, Postemergence, 0 is no effect, 100 is complete control, read-out: Morningglory plant response rating): 40% | pest or weed control at 1000 g/ha ([4]; pre-emergence, Preemergence, 0 no effect, 100 complete control, read-out: Plant response rating, Morningglory): 10% | pest or weed control at 1000 g/ha ([5]; Amaranthus retroflexus, post-emergence, 240 h, Postemergence, 1000 g ai/ha, 0 to 100 scale, 0 is no effect, 100 is complete control, read-out: Pigweed plant response rating): 50% | pest or weed control at 1000 g/ha ([6]; Abutilon theophrasti, pre-emergence, 240 h, read-out: Plant response rating, Velvetleaf): 20% | plant injury at 1000 g/ha ([7]; post-emergence, Postemergence, 1000 g ai/ha, 0 to 100 scale, 0 is no effect, 100 is complete control, read-out: Wheat plant response rating): 20% | plant injury at 1000 g/ha ([7]; pre-emergence, Preemergence, 1000 g ai/ha, 0 to 100 scale, 0 no effect, 100 complete control, read-out: Plant response rating, Wheat): 0%

Cc1cc(C)c2sc(C)c(-c3c(OC(=O)N4CCOCC4)c(C)nn(C)c3=O)c2c1 [Compound 174]
Plant response rating, Barnyardgrass [1, 19]: 0 | Plant response rating, Barnyardgrass [1, 20]: 10 | Plant response rating, Barnyardgrass [1, 21]: 0 | Plant response rating, Barnyardgrass [1, 22]: 0 | Plant response rating, Corn (corn (Zea mays); [19]): 0 | Plant response rating, Corn (corn (Zea mays); [20]): 0 | Plant response rating, Foxtail, Giant [3, 19]: 0 | Plant response rating, Foxtail, Giant [3, 20]: 10 | Plant response rating, Foxtail, Giant [3, 21]: 0 | Plant response rating, Foxtail, Giant [3, 22]: 10 | Plant response rating, Kochia (kochia (Kochia scoparia); [19]): 0 | Plant response rating, Kochia (kochia (Kochia scoparia); [20]): 0 | Plant response rating, Kochia (kochia (Kochia scoparia); [21]): 0 | Plant response rating, Kochia (kochia (Kochia scoparia); [22]): 0 | Plant response rating, Pigweed [5, 19]: 40 | Plant response rating, Pigweed [5, 20]: 60 | Plant response rating, Pigweed [5, 21]: 0 | Plant response rating, Pigweed [5, 22]: 20 | Plant response rating, Ragweed [11, 19]: 20 | Plant response rating, Ragweed [11, 20]: 20 | Plant response rating, Ragweed [11, 21]: 0 | Plant response rating, Ragweed [11, 22]: 0 | Plant response rating, Ryegrass, Italian [12, 19]: 10 | Plant response rating, Ryegrass, Italian [12, 20]: 40 | Plant response rating, Ryegrass, Italian [12, 21]: 0 | Plant response rating, Ryegrass, Italian [12, 22]: 0 | Plant response rating, Wheat [7, 19]: 0 | Plant response rating, Wheat [7, 20]: 0 | Plant response rating, Blackgrass [13, 23]: 0 | Plant response rating, Blackgrass [13, 24]: 0 | Plant response rating, Galium [14, 23]: 30 | Plant response rating, Galium [14, 24]: 80 | Plant response rating, Barnyardgrass [8]: 0 | Plant response rating, Ducksalad [9]: 0 | Plant response rating, Rice (rice (Oryza sativa)): 0 | Plant response rating, Sedge, Umbrella [10]: 0

C#CCOc1c(C)nn(C)c(=O)c1-c1cccc2ccccc12 [Compound 179]
Barnyardgrass plant response rating [1, 15]: 10 | Plant response rating, Barnyardgrass [1, 16]: 0 | Corn plant response rating (corn (Zea mays); [15]): 10 | Foxtail, Giant plant response rating [3, 15]: 10 | Plant response rating, Foxtail, Giant [3, 16]: 30 | Kochia plant response rating (kochia (Kochia scoparia); [25]): 10 | Plant response rating, Kochia (kochia (Kochia scoparia); [16]): 30 | Pigweed plant response rating [5, 15]: 0 | Plant response rating, Pigweed [5, 16]: 80 | Ragweed plant response rating [11, 25]: 40 | Plant response rating, Ragweed [11, 16]: 50 | Ryegrass, Italian plant response rating [12, 25]: 70 | Plant response rating, Ryegrass, Italian [12, 16]: 30 | Wheat plant response rating [7, 15]: 0 | Blackgrass plant response rating ([13]; 0 to 100 scale): 40 | Galium plant response rating ([14]; 0 to 100 scale): 90 | Plant response rating, Barnyardgrass [8]: 0 | Plant response rating, Ducksalad [9]: 0 | Plant response rating, Rice (rice (Oryza sativa)): 0 | Plant response rating, Sedge, Umbrella [10]: 0

Cc1nn(C)c(=O)c(-c2cccc3ccccc23)c1OCC(=O)C1CC1 [Compound 181]
Barnyardgrass plant response rating [1, 15]: 0 | Plant response rating, Barnyardgrass [1, 16]: 0 | Corn plant response rating (corn (Zea mays); [15]): 0 | Foxtail, Giant plant response rating [3, 15]: 0 | Plant response rating, Foxtail, Giant [3, 16]: 0 | Kochia plant response rating (kochia (Kochia scoparia); [25]): 0 | Plant response rating, Kochia (kochia (Kochia scoparia); [16]): 10 | Pigweed plant response rating [5, 15]: 30 | Plant response rating, Pigweed [5, 16]: 30 | Ragweed plant response rating [11, 25]: 30 | Plant response rating, Ragweed [11, 16]: 10 | Ryegrass, Italian plant response rating [12, 25]: 80 | Plant response rating, Ryegrass, Italian [12, 16]: 60 | Wheat plant response rating [7, 15]: 0 | Blackgrass plant response rating ([13]; 0 to 100 scale): 20 | Galium plant response rating ([14]; 0 to 100 scale): 80 | Plant response rating, Barnyardgrass [8]: 0 | Plant response rating, Ducksalad [9]: 0 | Plant response rating, Rice (rice (Oryza sativa)): 0 | Plant response rating, Sedge, Umbrella [10]: 0
